Patent publication US9074180B2, “Culture medium containing kinase inhibitors, and uses thereof” (THE UNIVERSITY COURT OF THE UNIVERSITY OF EDINBURGH, priority 2006, dated 2015)

Tests used:
[1] = tested on: RH ES cells fused to Neural Stem cells (NS TGFP); assay: ES-NS cell fusion, pluripotent hybrid colony formation (reprogramming); format: cell-based
Protocol: (FIGS. 1A-1C)—FACS analysis for red and green fluorescence of RH×NS TGFP fusions. (FIG. 1A) Fusion mixture 24 hours after PEG treatment; (FIG. 1B) Purity check of FACS sorted hybrids gated in A. (FIG. 1C) Hybrids sorted in A were plated and the formed colonies were scored as percentage of colonies per plated hybrid. These scores take into account the purity of the FACS sorted cells. (FIG. 1D) Summary of data. (FIG. 1E) Examples of hybrid colony morphology.
RH ES cells, which express constitutively the dsRed fluorescent protein and hygromycin resistance, were fused to foetal derived Neural Stem cells (NS TGFP) that express the fusion protein TauGFP linked via an IRES to puromycin resistance. […] In the control no PD184352 was added. Treated and untreated primary hybrids were sorted 24 hours after fusion and then plated (FIG. 1A-C). Hygromycin and puromycin selection were added to the ES medium 3 days later. […] This effect is likely to be mediated by the increased levels of Nanog in treated RH cells. Accordingly, if Nanog is endogenously expressed then the MEK inhibitor can be used to upregulate Nanog and achieve associated effects, such as increased reprogramming.

[2] = tested on: Nanog; assay: Nanog levels and Nanog dependence of self-renewal in ES cells; format: cell-based; conditions: data not shown
Text: In fact, these cells differentiated.

[3] = tested on: Mouse ES cells; assay: Mouse ES cell self-renewal culture; format: cell-based; conditions: for ES cell propagation: single inhibitor in N2B27 medium containing LIF without BMP4; for Oct4/Sox1 marker status: single inhibitor in N2B27 medium without added LIF; for toxicity to ES cells: GSK-3 inhibitor alone in ES cell culture
Protocol: Mouse ES cells were cultured in the presence of an inhibitor of the FGF receptor and a MEK inhibitor. […] Undifferentiated cultures can be continuously passaged in these conditions while retaining expression of the pluripotency markers Oct4, Nanog, and Rex1.
However, these cells invariably differentiate and/or die after passaging. To reduce potential toxic side effects we used 2.5 fold lower doses and combined the two inhibitors together. […] Viability is lower and population doubling time slower in this two inhibitor (2i) condition than in the presence of ILIF, but differentiation is effectively restrained.
We reasoned that reduced growth of ES cells in 2i media could be due to increased activity of glycogen synthase kinase 3 (GSK-3) consequent to release of inhibitory phosphorylation by Rsk downstream of pErk. […] In serum-free N2B27 medium the differentiation response is reduced and some colonies appear morphologically Undifferentiated for several days.
However, when CHIR99021 is combined with 2i the differentiation response is lost entirely. Furthermore, CHIR99021 modulated the response to 2i such that ES cells grew as compact three dimensional colonies rather than flattened monolayers typically seen in LIF plus serum/BMP or in 2i. Differentiation was negligible in the three inhibitors (3i) and ES cells propagated rapidly. Most importantly undifferentiated colonies grew up at high efficiency after passaging (data not shown).

[4] = tested on: Human ES cells; assay: Human ES cell culture; format: cell-based; conditions: media supplemented with CHIR99021 and PD184352; data not shown
[5] = tested on: cyclin-dependent kinases (CDKs); conditions: at concentrations that completely block GSK-3 activity; cited from earlier work
[6] = tested on: FGF receptor; assay: Substitution of FGFR antagonist in culture medium; format: cell-based; conditions: substituting for SU5402
Protocol: Suitable concentrations of SU5402 are in the micromolar range, such as from 0.1-20 μM. Some embodiments use concentrations in the range 0.5-10 μM, especially in the range 1-5 μM.

O=C(NOCC1CC1)c1ccc(F)c(F)c1Nc1ccc(I)cc1Cl [PD184352]
percentage of hybrid colonies formed per plated hybrid ([1]; PD184352 treated RH cells (3 μM)): 2.25% | enhancement of ES-NS hybrid colony formation ([1]; RH cells treated 3 days prior and after fusion with 3 μM PD184352, vs untreated control): 45 fold | ES cell self-renewal in Nanog −/− ES cells ([2]; Nanog −/− ES cells): failed to show enhancing of ES cell self-renewal | levels of Nanog in ES cells [2]: increases the levels of Nanog | ES cell propagation [3]: sufficient for robust ES cell propagation | Oct4/Sox1 marker status [3]: remain Oct4 positive and Sox1 negative for several days

LIF: Leukaemia Inhibitory Factor, gp130 receptor binding cytokine
propagation of cells on addition of LIF [4]: further improved propagation | propagation of cells on addition of LIF ([3]; media supplemented with CHIR99021 and PD184352, data not shown): further improved propagation

Cc1c[nH]c(-c2cnc(NCCNc3ccc(C#N)cn3)nc2-c2ccc(Cl)cc2Cl)n1 [CHIR99021]
cross reaction with CDKs [5]: does not cross react | differentiation response ([3]; 3 μM, in the presence of serum, even with LIF): promotes differentiation | persistence of undifferentiated cells after passaging ([3]; serum-free N2B27 medium, GSK-3 inhibitor alone): Undifferentiated cells do not persist after passaging

O=C1NC(=O)C(c2ccccc2[N+](=O)[O-])=C1Nc1ccc(O)c(Cl)c1 [SB415286]
toxicity to ES cells [3]: somewhat toxic

Cn1cc(C2=C(c3ccc(Cl)cc3Cl)C(=O)NC2=O)c2ccccc21 [SB216763]
toxicity to ES cells [3]: somewhat toxic

Cc1c[nH]c(/C=C2\C(=O)Nc3ccccc32)c1CCC(=O)O [SU5402]
ES cell propagation [3]: sufficient for robust ES cell propagation | Oct4/Sox1 marker status [3]: remain Oct4 positive and Sox1 negative for several days

CCN(CC)CCCCNc1ncc2cc(-c3cc(OC)cc(OC)c3)c(NC(=O)NC(C)(C)C)nc2n1 [PD173074]
fully effective concentration relative to SU5402 (fold lower) [6]: about 100 fold
